Test results published in ChEMBL document CHEMBL2176918, “Design and optimization of pyrazinecarboxamide-based inhibitors of diacylglycerol acyltransferase 1 (DGAT1) leading to a clinical candidate dimethylpyrazinecarboxamide phenylcyclohexylacetic acid (AZD7687)” (J Med Chem, 2012).
Values after ≈ are worked out from the molar mass of the structure shown. Each block holds one compound with its values, some of them ahead of it.

What was measured:
[1] = Lipophilicity, log D of the compound at pH 7.4 by chromatographic method; settings: buffer
[2] = target: T1, Diacylglycerol O-acyltransferase 1 (Homo sapiens, UniProt O75907); settings: sf9
T1 sequence (O75907 whole entry): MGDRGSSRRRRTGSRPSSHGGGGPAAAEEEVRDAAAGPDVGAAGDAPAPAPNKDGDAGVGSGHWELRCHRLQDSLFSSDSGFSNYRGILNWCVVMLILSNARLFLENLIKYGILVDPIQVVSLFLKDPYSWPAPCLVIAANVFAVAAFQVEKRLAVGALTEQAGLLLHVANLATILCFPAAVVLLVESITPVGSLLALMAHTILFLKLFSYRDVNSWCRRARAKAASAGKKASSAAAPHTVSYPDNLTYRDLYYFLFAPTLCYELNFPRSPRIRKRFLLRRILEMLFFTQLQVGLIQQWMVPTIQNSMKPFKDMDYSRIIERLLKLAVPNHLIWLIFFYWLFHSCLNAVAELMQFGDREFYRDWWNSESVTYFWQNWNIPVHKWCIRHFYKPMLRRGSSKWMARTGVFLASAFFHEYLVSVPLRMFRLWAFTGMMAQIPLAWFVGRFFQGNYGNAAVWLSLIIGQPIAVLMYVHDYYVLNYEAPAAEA
Description: (§1) Inhibition of human recombinant DGAT1 expressed in Sf9 cells by liquid scintillography

[3] = Apparent permeability from apical to basolateral side in MDCK cells at pH 7.4; settings: dog
[4] = Intrinsic clearance in rat hepatocytes assessed as parent compound disappearance at 1 uM per 10^6 cells; type: ADME, cell-based, Hepatocyte; settings: read-out: CLH
[5] = Fraction unbound in human plasma at 37 degC by LC-UV/MS method based equilibrium dialysis method
[6] = Octanol/water partition coefficient, log D of the compound at pH 7.4; type: physicochemical
[7] = Apparent permeability from apical to basolateral side in human Caco2 cells at pH 7.4; type: ADME, cell-based; settings: Caco-2, pH 7.4
[8] = Solubility in 0.1 M phosphate buffer at pH 7.4 at 25 degC incubated for 24 hrs
[9] = target: T1, Diacylglycerol O-acyltransferase 1
Description: as §1

[10] = Stability in pH 7.8 buffer assessed as acyl migration incubated for 45 mins; type: physicochemical; settings: pH 7.8, 0.75 h
[11] = Stability in pH 7.8 buffer assessed as compound degradation incubated for 45 mins; type: physicochemical; settings: pH 7.8, 0.75 h
[12] = target: T2, Sterol O-acyltransferase 1 (Homo sapiens, UniProt P35610)
T2 sequence (P35610 whole entry): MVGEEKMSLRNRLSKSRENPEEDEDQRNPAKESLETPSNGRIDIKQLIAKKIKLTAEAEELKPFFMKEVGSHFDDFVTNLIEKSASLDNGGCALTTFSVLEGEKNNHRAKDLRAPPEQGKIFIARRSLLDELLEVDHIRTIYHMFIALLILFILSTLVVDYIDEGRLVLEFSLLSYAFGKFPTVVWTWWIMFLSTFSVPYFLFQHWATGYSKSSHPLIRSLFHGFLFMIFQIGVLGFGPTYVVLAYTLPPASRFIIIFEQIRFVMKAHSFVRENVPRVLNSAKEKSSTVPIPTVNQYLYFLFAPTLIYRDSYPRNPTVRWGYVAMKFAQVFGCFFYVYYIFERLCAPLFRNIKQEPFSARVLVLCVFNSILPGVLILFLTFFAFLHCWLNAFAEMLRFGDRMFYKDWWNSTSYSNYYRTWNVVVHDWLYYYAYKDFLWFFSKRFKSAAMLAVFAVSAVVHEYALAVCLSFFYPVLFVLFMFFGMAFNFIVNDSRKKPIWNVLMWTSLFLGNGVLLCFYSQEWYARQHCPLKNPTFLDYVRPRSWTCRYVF
Description: Inhibition of human ACAT1 by liquid scintillography

[13] = Half life in Han-Wistar rat at 2.54 to 5.4 uM/kg, po; type: ADME, organism-based; settings: in vivo
[14] = Oral bioavailability in rat; settings: in vivo

chromatographic logD [1]: 1.5
Compound: CCc1nc(C)c(-c2ccc([C@H]3CC[C@H](CC(=O)O)CC3)cc2)nc1C(N)=O

IC50 [2]: Not Active
Compound: Cc1nc(C)c(-c2ccc([C@H]3CC[C@H](CC(=O)O)CC3)cc2)nc1C(=O)O

Papp A→B [3]: 18 ×10⁻⁶ cm/s
hepatocyte CLint at 1 µM [4]: 77 µL/min/1e6 cells
fraction unbound [5]: 0.13
chromatographic logD [1]: 1.7
Compound: Cc1nc(C)c(-c2ccc([C@H]3CC[C@H](CC(N)=O)CC3)cc2)nc1C(N)=O

logD [6]: 1
Compound: Cc1ncc(-c2ccc([C@H]3CC[C@H](CC(=O)O)CC3)cc2)nc1C(N)=O

Papp A→B [7]: 2 ×10⁻⁶ cm/s
hepatocyte CLint at 1 µM [4]: 17 µL/min/1e6 cells
solubility at 24 h [8]: 100 µM (≈ 44.5 µg/mL)
chromatographic logD [1]: 0.9
IC50 [9]: 100 nM
Compound: Cc1nc(C)c(-c2ccc([C@H]3CC[C@H](CC(=O)NS(C)(=O)=O)CC3)cc2)nc1C(N)=O

chromatographic logD [1]: 1.4
Compound: Cc1nc(C(F)F)c(C(N)=O)nc1-c1ccc([C@H]2CC[C@H](CC(=O)O)CC2)cc1

Papp A→B [7]: 58 ×10⁻⁶ cm/s
solubility at 24 h [8]: 4 µM (≈ 1.41 µg/mL)
chromatographic logD [1]: 3.1
IC50 [9]: 690 nM
Compound: Cc1nc(C)c(-c2ccc([C@H]3CC[C@H](CCO)CC3)cc2)nc1C(N)=O

Papp A→B [7]: 35 ×10⁻⁶ cm/s
hepatocyte CLint at 1 µM [4]: < 6 µL/min/1e6 cells
solubility at 24 h [8]: > 100 µM
chromatographic logD [1]: 0.3
IC50 [12]: > 33000 nM
IC50 [9]: 310 nM
Compound: Cc1ncc(C(N)=O)nc1-c1ccc([C@H]2CC[C@H](CC(=O)O)CC2)cc1

chromatographic logD [1]: 1.7
IC50 [9]: > 9100 nM
Compound: CCc1nc(C)c(C(N)=O)nc1-c1ccc([C@H]2CC[C@H](CC(=O)O)CC2)cc1

chromatographic logD [1]: 2.6
IC50 [9]: > 10000 nM
Compound: Cc1nc(C(C)C)c(C(N)=O)nc1-c1ccc([C@H]2CC[C@H](CC(=O)O)CC2)cc1

bioavailability [14]: 19%
Papp A→B [7]: 0.71 ×10⁻⁶ cm/s
fraction unbound [5]: 0.078
solubility at 24 h [8]: 86 µM (≈ 38.9 µg/mL)
chromatographic logD [1]: 0.7
IC50 [9]: 110 nM
Compound: Cc1nc(C)c(-c2ccc([C@H]3CC[C@H](CC(=O)NC(C)(C)C(=O)O)CC3)cc2)nc1C(N)=O

chromatographic logD [1]: 2.6
IC50 [9]: > 10000 nM
Compound: Cc1nc(C(C)C)c(-c2ccc([C@H]3CC[C@H](CC(=O)O)CC3)cc2)nc1C(N)=O

chromatographic logD [1]: 0.9
IC50 [2]: Not Active
Compound: CNC(=O)c1cnc(C)c(-c2ccc([C@H]3CC[C@H](CC(=O)O)CC3)cc2)n1

chromatographic logD [1]: 2
IC50 [9]: > 10000 nM
Compound: Cc1nc(-c2ccccc2)c(C(N)=O)nc1-c1ccc([C@H]2CC[C@H](CC(=O)O)CC2)cc1

IC50 [9]: 430 nM
Compound: Cc1nc(C)c(-c2ccc([C@H]3CC[C@@H](CC(=O)O)CC3)cc2)nc1C(N)=O

logD [6]: 1.6
Compound: Cc1nc(C)c(-c2ccc([C@H]3CC[C@H](CCC(=O)O)CC3)cc2)nc1C(N)=O

Continued, compound first:

Compound: NC(=O)c1cncc(-c2ccc([C@H]3CC[C@H](CC(=O)O)CC3)cc2)c1
chromatographic logD [1]: 0

Compound: Cc1ncc(C(=O)N2CCOCC2)nc1-c1ccc([C@H]2CC[C@H](CC(=O)O)CC2)cc1
chromatographic logD [1]: 0.7
IC50 [2]: Not Active

Compound: Cc1ncc(C(N)=S)nc1-c1ccc([C@H]2CC[C@H](CC(=O)O)CC2)cc1
chromatographic logD [1]: 1.8

Compound: Cc1nc(C)c(-c2ccc([C@H]3CC[C@H](CC(=O)O)CC3)c(Cl)c2)nc1C(N)=O
chromatographic logD [1]: 1.8

Compound: NC(=O)c1cccc(-c2ccc([C@H]3CC[C@H](CC(=O)O)CC3)cc2)n1
chromatographic logD [1]: 0.8

Compound: Cc1nc(C)c(-c2ccc3c(c2)CC[C@]32CC[C@@H](Cc3nnn[nH]3)CC2)nc1C(N)=O
chromatographic logD [1]: 2

Compound: Cc1nc(C)c(-c2ccc([C@H]3CC[C@H](CC(=O)O[C@@H]4O[C@H](C(=O)O)[C@@H](O)[C@H](O)[C@H]4O)CC3)cc2)nc1C(N)=O
Stability [10]: Stable
Stability [11]: Stable

Compound: Cc1nc(C)c(-c2ccc([C@H]3CC[C@@H](CC(=O)O)CC3)c(F)c2)nc1C(N)=O
chromatographic logD [1]: 1.2

Compound: N=C(N)c1cncc(-c2ccc([C@H]3CC[C@H](CC(=O)O)CC3)cc2)n1
chromatographic logD [1]: < 0
IC50 [9]: > 33000 nM

Compound: CC(C)(NC(=O)C[C@H]1CC[C@H](c2ccc(-c3cncc(C(N)=O)n3)cc2)CC1)C(=O)O
hepatocyte CLint at 1 µM [4]: < 2 µL/min/1e6 cells
solubility at 24 h [8]: > 100 µM
chromatographic logD [1]: < 0.1
IC50 [9]: 1100 nM

Compound: Cc1nc(C)c(-c2ccc([C@H]3CC[C@@H](CC(=O)O)CC3)c(Cl)c2)nc1C(N)=O
chromatographic logD [1]: 1.5

Compound: Cc1nc(C)c(-c2ccc(C34CCC(C(=O)O)(CC3)CC4)cc2)nc1C(N)=O
half-life [13]: 7.3 h
Papp A→B [3]: 13 ×10⁻⁶ cm/s
hepatocyte CLint at 1 µM [4]: < 2 µL/min/1e6 cells
fraction unbound [5]: 0.006
solubility at 24 h [8]: 113 µM (≈ 42.9 µg/mL)
chromatographic logD [1]: 1.6
IC50 [12]: 15000 nM
IC50 [9]: 80 nM

Compound: Cc1ccc(C(N)=O)nc1-c1ccc([C@H]2CC[C@H](CC(=O)O)CC2)cc1
chromatographic logD [1]: 1.3

Compound: N#C/N=C(\N)c1cncc(-c2ccc([C@H]3CC[C@H](CC(=O)O)CC3)cc2)n1
chromatographic logD [1]: 1.2
IC50 [2]: Not Active

Compound: NC(=O)c1cncc(-c2ccc([C@H]3CC[C@H](CCO)CC3)cc2)n1
Papp A→B [7]: 38 ×10⁻⁶ cm/s
hepatocyte CLint at 1 µM [4]: 36 µL/min/1e6 cells
fraction unbound [5]: 0.028
solubility at 24 h [8]: 3 µM (≈ 0.976 µg/mL)
chromatographic logD [1]: 2.3
IC50 [9]: 1200 nM

Compound: NCc1cncc(-c2ccc([C@H]3CC[C@H](CC(=O)O)CC3)cc2)n1
chromatographic logD [1]: < 0
IC50 [2]: Not Active

Compound: NC(=O)c1nc(-c2ccc([C@H]3CC[C@H](CC(=O)O)CC3)cc2)cnc1N
chromatographic logD [1]: 0.5
IC50 [9]: > 10000 nM

Compound: Cc1nc(C)c(-c2ccc([C@H]3CC[C@H](CC(=O)O)CC3)c(F)c2)nc1C(N)=O
chromatographic logD [1]: 1.3

Compound: Cc1nc(C)c(-c2ccc3c(c2)CC[C@]32CC[C@@H](c3nnn[nH]3)CC2)nc1C(N)=O
chromatographic logD [1]: 1.4

Compound: NC(=O)C[C@H]1CC[C@H](c2ccc(-c3cncc(C(N)=O)n3)cc2)CC1
Papp A→B [7]: 13 ×10⁻⁶ cm/s
solubility at 24 h [8]: < 1 µM
chromatographic logD [1]: 0.9
IC50 [9]: 1900 nM

Compound: Cc1nc(C)c(-c2ccc([C@H]3CC[C@H](Cc4nnn[nH]4)CC3)cc2)nc1C(N)=O
half-life [13]: 9 h
hepatocyte CLint at 1 µM [4]: < 2 µL/min/1e6 cells
fraction unbound [5]: 0.009

Compound: NC(=O)c1cncc(-c2ccc([C@H]3CC[C@H](CC(=O)O)CC3)cc2)n1
bioavailability [14]: 62%
Papp A→B [7]: 29 ×10⁻⁶ cm/s
fraction unbound [5]: 0.035
chromatographic logD [1]: < 0.1
IC50 [12]: > 100000 nM
IC50 [9]: 1900 nM

Compound: Cc1ncc(C(=O)NCc2ccccc2)nc1-c1ccc([C@H]2CC[C@H](CC(=O)O)CC2)cc1
chromatographic logD [1]: 2.7
IC50 [2]: Not Active

Compound: Cc1ncc(C(N)=O)nc1-c1ccc([C@H]2CC[C@H](C(=O)O)CC2)cc1
hepatocyte CLint at 1 µM [4]: 72 µL/min/1e6 cells
solubility at 24 h [8]: 1200 µM (≈ 407 µg/mL)
chromatographic logD [1]: 0.22

Compound: Cc1nc(C)c(-c2ccc(C34CCC(CC(=O)O)(CC3)CC4)cc2)nc1C(N)=O
chromatographic logD [1]: 1.3

Compound: Cc1ncc(C(=O)N(C)C)nc1-c1ccc([C@H]2CC[C@H](CC(=O)O)CC2)cc1
chromatographic logD [1]: 0.7
IC50 [2]: Not Active

Compound: Cc1nc(C)c(-c2ccc3c(c2)CC[C@]32CC[C@@H](CC(=O)O)CC2)nc1C(N)=O
half-life [13]: 7.5 h
Papp A→B [3]: 12 ×10⁻⁶ cm/s
hepatocyte CLint at 1 µM [4]: < 2 µL/min/1e6 cells
fraction unbound [5]: 0.013
solubility at 24 h [8]: 562 µM (≈ 221 µg/mL)
IC50 [12]: 2400 nM
IC50 [9]: 30 nM

Compound: Cc1ncc(C(=O)O)nc1-c1ccc([C@H]2CC[C@H](CC(=O)O)CC2)cc1
chromatographic logD [1]: < 0
IC50 [2]: Not Active

Compound: Cc1nc(-c2ccccc2)c(-c2ccc([C@H]3CC[C@H](CC(=O)O)CC3)cc2)nc1C(N)=O
chromatographic logD [1]: 2.5
IC50 [9]: > 10000 nM
